From PubChem BioAssay (NCI)
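Growth conditions: 96-well plates. Treatment: test compound, 48 hours, 5 concentrations. Analysis: linear interpolation between bracketing concentrations; unreached endpoints set to highest concentration. TGI: concentration producing complete growth inhibition.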

Experiments:
Assay in all cases: inhibition of tumour cell growth, NCI panel, 48 h
786-0 renal = system: 786-0 renal
A498 renal = system: A498 renal
A549 NSCLC = system: A549 NSCLC
ACHN renal = system: ACHN renal
CCRF-CEM leukemia = system: CCRF-CEM leukemia
COLO 205 colon = system: COLO 205 colon
DLD-1 colon = system: DLD-1 colon
DMS 114 small cell lung = system: DMS 114 small cell lung
DMS 273 small cell lung = system: DMS 273 small cell lung
EKVX NSCLC = system: EKVX NSCLC
HCC-2998 colon = system: HCC-2998 colon
HCT-116 colon = system: HCT-116 colon
HCT-15 colon = system: HCT-15 colon
HL-60(TB) leukemia = system: HL-60(TB) leukemia
HOP-18 NSCLC = system: HOP-18 NSCLC
HOP-62 NSCLC = system: HOP-62 NSCLC
HOP-92 NSCLC = system: HOP-92 NSCLC
HT29 colon = system: HT29 colon
IGROV1 ovarian = system: IGROV1 ovarian
K-562 leukemia = system: K-562 leukemia
KM20L2 colon = system: KM20L2 colon
LXFL 529 NSCLC = system: LXFL 529 NSCLC
M14 melanoma = system: M14 melanoma
M19-MEL melanoma = system: M19-MEL melanoma
MALME-3M melanoma = system: MALME-3M melanoma
MOLT-4 leukemia = system: MOLT-4 leukemia
NCI-H226 lung = system: NCI-H226 lung
NCI-H23 lung = system: NCI-H23 lung
NCI-H522 lung = system: NCI-H522 lung
OVCAR-4 ovarian = system: OVCAR-4 ovarian
OVCAR-8 ovarian = system: OVCAR-8 ovarian
RPMI-8226 leukemia = system: RPMI-8226 leukemia
RXF 393 renal = system: RXF 393 renal
SF-268 CNS = system: SF-268 CNS
SF-295 CNS = system: SF-295 CNS
SF-539 CNS = system: SF-539 CNS
SK-MEL-28 melanoma = system: SK-MEL-28 melanoma
SK-MEL-5 melanoma = system: SK-MEL-5 melanoma
SK-OV-3 ovarian = system: SK-OV-3 ovarian
SN12C renal = system: SN12C renal
SNB-19 CNS = system: SNB-19 CNS
SNB-75 CNS = system: SNB-75 CNS
SNB-78 CNS = system: SNB-78 CNS
SR leukemia = system: SR leukemia
SW-620 colon = system: SW-620 colon
U251 CNS = system: U251 CNS
UACC-257 melanoma = system: UACC-257 melanoma
UACC-62 melanoma = system: UACC-62 melanoma
UO-31 renal = system: UO-31 renal
XF 498 CNS = system: XF 498 CNS

## CSc1ccc(NC(=O)C2c3[nH]c4ccccc4c3C3CCC(C(C)(C)C)CC3C2C(=O)O)cc1 (stereo not given)
786-0 renal
  TGI: 32.2 µM
A498 renal
  TGI: 35.4 µM
A549 NSCLC
  TGI: 30.9 µM
ACHN renal
  TGI: 32 µM
CCRF-CEM leukemia
  TGI: 25.8 µM
COLO 205 colon
  TGI: 32 µM
DLD-1 colon
  TGI: 54.6 µM
DMS 114 small cell lung
  TGI: 63.4 µM
DMS 273 small cell lung
  TGI: 30 µM
EKVX NSCLC
  TGI: 85.3 µM
HCC-2998 colon
  TGI: > 100 µM
HCT-116 colon
  TGI: 27.5 µM
HCT-15 colon
  TGI: > 100 µM
HL-60(TB) leukemia
  TGI: 23 µM
HOP-18 NSCLC
  TGI: 35.9 µM
HOP-62 NSCLC
  TGI: 32.1 µM
HOP-92 NSCLC
  TGI: 53 µM
HT29 colon
  TGI: 39.1 µM
IGROV1 ovarian
  TGI: 51.8 µM
K-562 leukemia
  TGI: > 100 µM
KM20L2 colon
  TGI: 32.6 µM
LXFL 529 NSCLC
  TGI: 31.8 µM
M14 melanoma
  TGI: 44.6 µM
M19-MEL melanoma
  TGI: 57.3 µM
MALME-3M melanoma
  TGI: 46.8 µM
MOLT-4 leukemia
  TGI: 31.4 µM
NCI-H226 lung
  TGI: 33.1 µM
NCI-H23 lung
  TGI: 58.7 µM
NCI-H522 lung
  TGI: 37.4 µM
OVCAR-4 ovarian
  TGI: 50.1 µM
OVCAR-8 ovarian
  TGI: 28.8 µM
RPMI-8226 leukemia
  TGI: 58.6 µM
RXF 393 renal
  TGI: 49.5 µM
SF-268 CNS
  TGI: 47 µM
SF-295 CNS
  TGI: 38.5 µM
SF-539 CNS
  TGI: 37.7 µM
SK-MEL-28 melanoma
  TGI: 60.5 µM
SK-MEL-5 melanoma
  TGI: 66 µM
SK-OV-3 ovarian
  TGI: 37.3 µM
SN12C renal
  TGI: 36.8 µM
SNB-19 CNS
  TGI: 80.2 µM
SNB-75 CNS
  TGI: 37.9 µM
SNB-78 CNS
  TGI: 53.2 µM
SR leukemia
  TGI: 25.5 µM
SW-620 colon
  TGI: 32.1 µM
U251 CNS
  TGI: 31.8 µM
UACC-257 melanoma
  TGI: > 100 µM
UACC-62 melanoma
  TGI: 67.1 µM
UO-31 renal
  TGI: 61.6 µM
XF 498 CNS
  TGI: 39.7 µM
